Measured values published in ChEMBL document CHEMBL3507680, “University of Dundee, Gates Library screen for HepG2 cell viability”.

experiment: Human HepG2 cell viability assay in 384 well format; type: toxicity, cell-based; parameters: dose 125 nL, time 70.5 hour; cytotoxicity at 70.5 h: concentration not given beside the values; details: HepG2 cells, read-out: Inhibition

SMILES | cytotoxicity at 70.5 h [%]
CCc1nccn1C1CCCN(C(=O)c2ccc3nnc(C)n3c2)C1 (configuration not stated) | -2.12
Cc1c[nH]c(C2CCCN(C(=O)CCc3c(C)n[nH]c3C)C2)n1 (configuration not stated) | -2.32
NCC1CCCCN1C(=O)Cc1cccc(Cl)c1 (configuration not stated) | -6.28
O=C(Cc1nc(-c2ccncc2)n[nH]1)NCCCN1CCOCC1 | -10.7
COc1ccc(-c2nc(C3CCNCC3)cc3c2ncn3C)cc1 | 11.7
Fc1ccc(CN2CCn3cc(Cn4cccn4)nc3C2)cc1 | -20.8
COc1ccc(Cc2ncc3c(n2)CN(C(=O)CCO)C3)cc1 | 25.1
Cc1c[nH]nc1C1CCCCN1C(=O)CNS(C)(=O)=O (configuration not stated) | 9.79
NC(=O)c1cccc(OCC(=O)N2CCCC(n3cccn3)C2)c1 (configuration not stated) | 3.84
Cc1nc(C(=O)N2CCCC(c3cc(C(F)(F)F)[nH]n3)C2)c[nH]1 (configuration not stated) | -6.23
Cc1csc(C(C#N)C(=O)Nc2ccccc2)n1 (configuration not stated) | -0.341
CO[C@@H]1CCN(S(=O)(=O)c2cccnc2)[C@@H]2CN(CC3CC3)C[C@@H]21 | -8.38
CSc1nccc(N2CCC3(CCCN(CCc4ccccc4)C3)C2)n1 (configuration not stated) | 6.79
Cc1nc2c(N3CCN(CCO)CC3)nc(N)nc2n1C | 0.799
Cc1cc(C[C@@H]2COC[C@@H]2NC(=O)CN2CCCC2)on1 | -0.566
CC(C#N)CN(C)C(=O)c1cn(-c2ccc(Br)cc2)cn1 (configuration not stated) | -1.57
COCc1ccc(C(=O)N2CCCN(C(=O)OCC(C)C)CC2)cc1 | 19
CCN(CC1CCCO1)C(=O)Nc1cc(C(=O)OC)ccc1F (configuration not stated) | -22.1
c1cncc(N2CCCn3nnc(COCC4CC4)c3C2)c1 | -7.98
CC(C)N(CC(=O)O)Cc1cccc(Br)c1 | 2.77
Cc1ccccc1Oc1ncccc1CNS(=O)(=O)N(C)C | -1.73
CCNC(=O)C1CCCN(Cn2nc(C(C)(C)C)ccc2=O)C1 (configuration not stated) | 21.4
CC(C)c1noc(C(C)S(=O)(=O)Cc2nc(C3CC3)no2)n1 (configuration not stated) | -4.5

SMILES | cytotoxicity at 70.5 h [%]
CC(C)(C)CC(=O)Nc1ncn(CC(=O)NCc2ccccc2)n1 | 25.6
CSC(C)C(=O)N1CCCN(Cc2cscn2)CC1 (configuration not stated) | 17.9
O=C(Cc1cn2ccsc2n1)N1CCCC(n2ccnc2)C1 (configuration not stated) | -2.03
COCC(=O)N1CC[C@H]2C[C@H](C)O[C@@H]2C1 | -7.04
Cc1cc(CN(C)Cc2ccccc2N2CCCCC2)n[nH]1 | 1.54
Cc1c(C)n(CC(O)CN2CCN(CCO)CC2)c2c(Cl)cccc12 (configuration not stated) | 10
COCCC(=O)NCC1Cn2nnc(-c3cccc(F)c3)c2CO1 (configuration not stated) | -0.67
O=C(N1CCCC1)N1C[C@H]2CC[C@@]3(N=C(c4ccccc4)NC3=O)[C@H]2C1 | 12.6
COC[C@]12COC[C@H]1CN(Cc1ccc3ccccc3n1)C2 | -3.53
CC(C)c1nccn1C1CCCN(C(=O)c2ccc3c(c2)OCO3)C1 (configuration not stated) | -12.1
CN1C(=O)CO[C@H]2CN(C(=O)c3ccc4c(c3)CCCC4)C[C@@H]21 | 8.95
COc1c(C)cnc(CN2CCn3c(C)nnc3C2)c1C | -3.41
CCc1nccn1CCNC1CCN(c2nc3ccc(Cl)cc3s2)CC1 | 40.5
CN(C)Cc1nn(C)c2c1CCN(C(=O)c1cccnc1)C2 | -20.7
CSCc1noc(CNC(=O)[C@H]2CNC[C@@H](C(=O)N3CCCC3)C2)n1 | -14.4
CN(Cc1nnc(C2CC2)n1C)S(=O)(=O)Cc1ccccc1F | -20.7
COc1ccccc1C(=O)N1CCC(O)(c2cccc(C)c2C)CC1 | 11.7
Cc1nc(CN2CCCC(N(C)Cc3nc(C)c(C)o3)C2)no1 (configuration not stated) | -2.87
Cc1cc(C)n(C2=NC(NCCCO)c3c(sc4c3CCCC4)N2)n1 (configuration not stated) | -11.9
Cc1cc(C)n(CC2CN(CC(=O)NC3(C#N)CCCC3)CCO2)n1 (configuration not stated) | -3.7
CC(C)CCn1[nH]c(CNc2ccccc2)nc1=O | -10.8
Cc1ccccc1C(C)NC(=O)CN1CCN(Cc2cccs2)CC1 (configuration not stated) | 0.186
CCN(CC1COc2ccccc2O1)C(=O)C1=NN(C)C(=O)CC1 (configuration not stated) | -2.86

SMILES | cytotoxicity at 70.5 h [%]
CCc1ncc(CN(CCc2ccccc2)Cc2cccs2)cn1 | -2.18
Cc1cn[nH]c1C1CCCN1Cc1ccc(F)c(F)c1 (configuration not stated) | -0.872
COc1ccc(C2CCCN2c2ccc(C#N)cn2)c(OC)c1 (configuration not stated) | 4.11
CNCCCNc1nc(C2CCCC2)nc2c1cnn2C | 2.51
CCc1nc(CN2CCCN(c3nccs3)CC2)no1 | 6.55
CCC(C#N)NC(=O)c1cc(Br)c2c(c1)OCCO2 (configuration not stated) | -9.18
C=C(C)CN1CCC(n2cc(C3CCCC3)nn2)CC1 | -2.5
CCN1CCN(C(C)CNC(=O)Nc2cnn(CC)c2)CC1 (configuration not stated) | -7.65
CN(C)C(C(=O)NCC1(O)CCCCC1)c1cccc(F)c1 (configuration not stated) | -2.16
OCCOc1nc(-c2ccccc2Cl)no1 | -1.34
CC(C)N1CC(NC(=O)c2ccc(Cl)s2)CC1=O (configuration not stated) | -6.6
CCn1ccnc1CN1CCN(c2ccc3nnc(C)n3n2)CC1 | -8.35
COc1ccccc1CN1C[C@@H]2CN(C(C)=O)CCO[C@@H]2C1 | -1.68
O[C@H]1[C@H](n2cc(-c3ccccc3)nn2)c2ccccc2C12CCNCC2 | 2.04
CCS(=O)(=O)CCN1CCN(C(C)c2cccnc2)CC1 (configuration not stated) | 19.9
CC(c1cccnc1)N(C)C(=O)NCCOc1ccc(C#N)cc1 (configuration not stated) | -11.1
Cc1cc(C(=O)N[C@H](C)c2onc(-c3cccnc3)c2C(=O)O)c(C)o1 | -2.03
Cc1cc(C)c(CNC(=O)Cc2ccc3c(c2)CCCC3)c(=O)[nH]1 | -7.45
Cn1ccnc1CNC1CCCOc2c1ccc1ccccc21 (configuration not stated) | -6.96
CNC(=O)CN1CCCC(Cc2ccccc2OC)C1 (configuration not stated) | 5.69
O=C(c1cccc(O)c1)N1C[C@@H](CN2CCCCC2)[C@@H](CO)C1 | -4.01
COCc1nnn2c1CN(C(=O)c1c[nH]cn1)CCC2 | 0.823
CCc1ccc(C(=O)N2CCCC2c2nnc3n2CCCCC3)o1 (configuration not stated) | 3.58

SMILES | cytotoxicity at 70.5 h [%]
Cc1cc(N(Cc2ccon2)S(C)(=O)=O)ccc1Br | 17.3
Cc1nc(-c2ccccc2)sc1C(=O)N(C1CC1)C1CC(=O)NC1=O (configuration not stated) | -8.02
O=C(Cn1cnc2cc3c(cc21)OCCCO3)NC1CCCC1 | 25.4
CC(C(=O)Nc1ccc2ccccc2c1)N1CCC(n2ccnc2)CC1 (configuration not stated) | -4.02
CC(=O)c1cc(CN2C[C@H]3CC[C@@H]2CN(S(C)(=O)=O)C3)cs1 | 13.8
Cn1cc2ncn(CCC3CCN(Cc4ccccc4)C3)c(=O)c2n1 (configuration not stated) | -7
CSc1ccc2cc(CN(C)CCc3cn[nH]c3)c(=O)[nH]c2c1 | 2.27
CC(C)Cc1ncc(CNc2cnccc2CO)s1 | -1.94
Cc1cncnc1C1CCN(CCO)CC1 | -7.32
Cc1cc(C(=O)Nc2cccn(Cc3ccc(F)cc3)c2=O)no1 | 0.798
CNC(=O)c1ccc2c(c1)C1(CCN(CCOC)CC1)C(=O)N2 | 0.0675
CN(C)C(=O)COC[C@@H]1CC[C@H]2[C@H](CCN2c2ccccn2)O1 | 44.1
CC(C)(O)CCc1ccc(C(=O)NCCC2CCOC2)cc1 (configuration not stated) | -2.2
CCCOc1ccc2c(c1)OCC(C(=O)NC(C)Cn1cccn1)=C2 (configuration not stated) | 1.23
CCc1nc2n(n1)CC(NCc1cc(OC)c3c(c1)OCO3)CC2 (configuration not stated) | 1.22
CN(C)CCOCC1CN(Cc2ccncc2)Cc2nnn(C)c21 (configuration not stated) | 1.9
CC(C)C(=O)NC(Cc1cc(N(C)C)nc(C2CC2)n1)c1ccccc1 (configuration not stated) | 3.43
CCc1cnc(N2CC3(CCN(C(=O)c4ccoc4)C3)C2)nc1 | -1.44
Cc1cccc(N2CC[C@H]3[C@H]2CCN3C(=O)c2cnn(C)c2)n1 | -8.26
CCN1CCN(c2ccc(CNC(=O)c3ccccc3F)cn2)CC1 | -0.777
Cc1cc(C)nc(Nc2nccnc2C2CCCN(C(CO)CO)C2)n1 (configuration not stated) | -6.39
Cc1ccccc1-n1cc(CN(C)C[C@@H]2CCCN3CCCC[C@H]23)cn1 | -12.2
CCN1CCC(CNC(=O)C(c2ccccc2F)N(C)C)(N(C)C)CC1 (configuration not stated) | -2.78

SMILES | cytotoxicity at 70.5 h [%]
O=C(CN1CCN(CCO)CC1)NC(C1CC1)C1CC1 | -5.18
CC(C)(O)CN1CCN(C(=O)COCC2CC2)CC1 | 2.07
Cc1occc1C(=O)N1CC[C@H]2C[C@@H](c3nnc(C4CC4)o3)O[C@@H]2C1 | -12
O=C(CCO)N[C@H]1CN(CC2CCC2)C[C@@H]1c1ccccc1 | -3.06
O=C([C@H]1CN(Cc2ccccc2F)C[C@H]2OCC[C@@H]12)N1CCCO1 | 1.95
CCc1nc(CCNC(=O)NC2CCC(=O)N(C)C2)sc1C (configuration not stated) | -8.41
CC(C)c1cn(CC(=O)NC2CC(=O)N(CCc3ccccc3)C2)nn1 (configuration not stated) | -3.95
CN(C)S(=O)(=O)N1CC[C@]2(O)CCN(Cc3cc(F)cc(F)c3)C[C@@H]2C1 | 10.9
c1ccc(Cc2noc(-c3ccc(NCC4COCCO4)nc3)n2)cc1 (configuration not stated) | -5.85
CCCc1cc(NCCn2cccn2)n2nccc2n1 | 1.84
COc1cccc(-c2n[nH]cc2-c2nc(CC3CCN(C)CC3)no2)c1 | -6.75
COc1ccc(Cc2ncc3c(n2)CN(C(=O)CO)C3)cc1 | -6.42
Cc1nnc([C@H]2CC[C@@H]3[C@@H](CCN3CC3CCOCC3)O2)o1 | -2.48
O=C(NCCN1CCOCC1)NCc1cccnc1-n1cccn1 | -2.89
NC(=O)c1cccc(CCNCc2cnc(C3CCC3)s2)c1 | 7.84
O=C(COc1ccc(F)cc1F)N1CCOCC(O)(CN2CCCC2)C1 (configuration not stated) | -2.46
Cn1ccnc1N1CCN(C(=O)Cc2ccccc2)CC1 | -8.11
CCN(C)C(=O)c1coc(COc2ccccc2)n1 | -4.16
Cc1ccccc1C(CNc1ncnc2c1CCNCC2)N(C)C (configuration not stated) | 5.24
CCN1CCN(CCCNC(=O)c2cc3ccc(C)cc3nc2C)CC1 | -2.81
